Assay results reported in patent US5972980A, “Method for treating and preventing inflammation and atherosclerosis” (Warner-Lambert Company, priority 1999, dated 1999).
Like-named read-outs stand apart in the source and are kept apart here.

Columns and labels:
[1] = biological target: T1, rabbit reticulocyte 15-LO (Oryctolagus cuniculus, UniProt P12530); test: 15-LO inhibition, rabbit reticulocyte 15-LO with linoleic acid substrate, HPLC method of Auerbach et al.; format: biochemical
T1 construct: rabbit reticulocyte 15-LO; from tissue; host or cells: rabbit reticulocytes
T1 sequence (P12530 1-663): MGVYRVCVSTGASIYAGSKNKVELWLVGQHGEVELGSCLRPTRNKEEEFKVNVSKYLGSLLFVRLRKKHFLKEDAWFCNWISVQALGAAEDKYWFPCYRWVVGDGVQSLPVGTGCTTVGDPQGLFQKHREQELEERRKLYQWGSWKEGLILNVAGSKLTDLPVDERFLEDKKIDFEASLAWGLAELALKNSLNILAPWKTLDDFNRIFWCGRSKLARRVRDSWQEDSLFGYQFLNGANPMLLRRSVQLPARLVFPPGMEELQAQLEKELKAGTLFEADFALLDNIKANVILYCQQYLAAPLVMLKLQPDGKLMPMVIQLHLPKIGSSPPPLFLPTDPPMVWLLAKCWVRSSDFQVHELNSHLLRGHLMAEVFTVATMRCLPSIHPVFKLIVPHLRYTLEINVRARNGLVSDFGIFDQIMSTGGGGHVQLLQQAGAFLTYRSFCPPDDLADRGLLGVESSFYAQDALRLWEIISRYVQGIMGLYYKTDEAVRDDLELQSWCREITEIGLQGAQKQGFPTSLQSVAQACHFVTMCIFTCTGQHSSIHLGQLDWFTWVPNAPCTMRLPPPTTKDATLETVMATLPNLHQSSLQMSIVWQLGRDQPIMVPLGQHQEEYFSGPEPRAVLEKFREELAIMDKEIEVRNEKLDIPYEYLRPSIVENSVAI
Experimental: Two in vitro assays were utilized, both utilizing rabbit reticulocyte 15-LO, and linoleic acid as substrate, to enzymatically produce a peroxide oxidation product known as 13(S)-HPODE. N-Benzoyl leucomethylene blue was utilized as a calorimetric reagent for detection and quantification of the peroxide formation. Also, HPLC was utilized to quantify the oxidation following incubation at 4° C. for 10 minutes.

5-LO enzyme = biological target: T2, 5-LO enzyme (Homo sapiens, UniProt P09917); test: 5-LO enzyme inhibition; format: biochemical
T2 sequence (P09917 1-674): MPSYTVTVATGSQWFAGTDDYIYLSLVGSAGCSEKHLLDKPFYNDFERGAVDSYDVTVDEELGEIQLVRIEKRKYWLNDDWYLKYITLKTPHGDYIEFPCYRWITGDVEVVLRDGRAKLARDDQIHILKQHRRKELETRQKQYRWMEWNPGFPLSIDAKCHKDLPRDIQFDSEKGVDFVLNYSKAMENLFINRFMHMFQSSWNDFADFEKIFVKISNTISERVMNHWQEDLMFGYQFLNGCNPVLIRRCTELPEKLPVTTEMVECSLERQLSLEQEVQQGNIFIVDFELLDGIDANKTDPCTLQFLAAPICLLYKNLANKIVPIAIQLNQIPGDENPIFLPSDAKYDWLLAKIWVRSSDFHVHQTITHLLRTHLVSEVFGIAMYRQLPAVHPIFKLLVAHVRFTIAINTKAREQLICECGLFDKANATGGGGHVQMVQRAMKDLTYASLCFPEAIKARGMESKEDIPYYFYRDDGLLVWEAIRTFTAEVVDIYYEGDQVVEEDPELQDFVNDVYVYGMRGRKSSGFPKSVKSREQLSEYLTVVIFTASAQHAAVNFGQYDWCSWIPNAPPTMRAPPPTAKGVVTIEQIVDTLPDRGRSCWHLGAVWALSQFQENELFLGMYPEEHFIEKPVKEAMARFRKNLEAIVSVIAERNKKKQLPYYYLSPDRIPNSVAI

[2] = tested on: atherosclerotic lesions in cholesterol-fed New Zealand White rabbits; test: Atherosclerosis in cholesterol-fed rabbits, 12-week study (aortic lesion coverage, aortic cholesterol content); format: in vivo, rabbit; details: 350 mg/kg/day in food, 12 weeks
Description: As further evidence of 15-LO inhibitors being effective to prevent and treat inflammation and atherosclerosis in animals, one representative compound has been extensively evaluated in cholesterol-fed rabbits over a 12-week period.
Specific pathogen-free New Zealand White rabbits (≈2.5 kg) were obtained from Myrtle's Rabbitry (Thompson Station, Tenn.). The animals were fed a standard laboratory diet (Ralston Purina, St. Louis, Mo.) and were allowed to become acclimatized for 7 days before initiation of the study, at which time two groups of rabbits (n=10 each) were begun on a diet enriched with cholesterol (0.25% wt/wt), peanut oil (3% wt/wt), and coconut oil (3% wt/wt), with a small amount of applesauce mixed into the food to enhance palatability. This diet was designed to produce a modest hypercholesterolemic response. The control group received no additional treatment. […] Rabbits were permitted access to 40 g of food at ≈12 hour intervals via automated feeders, and diet intake was monitored every day such that the animals received 175 mg/kg/bid. Water was available ad libitum. Body weights were measured at regular intervals throughout the 12-week study. Blood samples were obtained at the indicated intervals for determination of hematocrit and plasma lipid concentrations.
Rabbits were euthanized by an overdose of sodium pentobarbital (150 mg/kg^-1) and exsanguinated via the abdominal aorta. Aortas were removed from the valve to the ileal bifurcation, opened to expose the intima, and photographed with a Polaroid camera. By use of these photographs, the areas of grossly discernible atherosclerosis were manually integrated on a digitizing pad and calculated with SigmaScan (Jandel Scientific). Aortas were visually subdivided into three areas: arch (aortic valve to first intercostal), thoracic aorta (first intercostal to diaphragm area), and abdominal aorta (diaphragm to ileal bifurcation). In addition to extracting aortas, body tissues were surveyed for indications of adverse reactions.
Weighed segments of each aortic region (arch, thoracic, and abdominal) were extracted. Esterified and unesterified cholesterol content of aortic tissue were determined by gas chromatography using 5-α-cholestane as an internal standard.

[3] = Table 1, HPLC method, read-out: 15-LO IC50
[4] = Table 4, indoles, read-out: 15-LO IC50
[5] = Table 4, indoles, read-out: 5-LO IC50
[6] = Table 1, read-out: 5-LO (concentration to inhibit 50% of 5-LO activity)
[7] = Table 2, benzimidazoles, read-out: 15-LO IC50
[8] = Table 2, benzimidazoles, read-out: 5-LO IC50
[9] = read-out: 5-LO inhibitory activity IC50

Work on COc1ccc2c(c1)[nH]c1c3ccccc3[s+]cc21 yielded an IC50 [1, 3] of 26 µM.

COc1ccc2[nH]c3c(c2c1)CCc1ccccc1-3 was tested, and the IC50 [1, 3] was over 25 µM.

For COc1ccc(/C=C/C(=O)c2cccs2)cc1 [drawing 31 (R2=H, R3=4-OCH3, Het=drawing 32)], the IC50 ([1]; Table 3, styrenes, read-out: 15-LO IC50) was 1.6 µM and the IC50 (5-LO enzyme; Table 3, styrenes, read-out: 5-LO IC50) was over 10 µM.

Work on O=C(Cc1c[nH]c2ccccc12)Nc1ccccc1 yielded an IC50 [1, 4] of 1.5 µM and an IC50 (5-LO enzyme; [5]) of over 10 µM.

With Cc1[s+]c2ccccc2c2[nH]c3ccccc3c12 [drawing 19 (R2=H, R3=H, R4=H, R5=H, R8=CH3)] the IC50 [1, 3] was over 25 µM.

COc1ccc2[nH]c3c4ccccc4[s+]cc3c2c1 gave an IC50 [1, 3] of 0.7 µM and an IC50 (5-LO enzyme; [6]) of over 9.6 µM.

COc1ccc2c3c([nH]c2c1)-c1ccccc1SC3 was tested, and the IC50 [1, 3] was 4.5 µM and the IC50 (5-LO enzyme; [6]) was over 50 µM.

Clc1ccc2c(c1)Nc1c(ccc3ccccc13)S2 gave an IC50 ([1]; Table 5, read-out: 15-LO IC50) of 2 µM and an IC50 (5-LO enzyme; Table 5, read-out: 5-LO IC50) of over 30 µM.

In the case of c1csc(-c2csc(-c3nc4ccccc4[nH]3)n2)c1 [drawing 26 (R2=H, R3=H, R10=H, R11=drawing 27)], the IC50 [1, 7] is reported as 1.5 µM and the IC50 (5-LO enzyme; [8]) is reported as over 10 µM.

Clc1ccc(-c2nc3ccc(Cl)cc3[nH]2)cc1 [2-(4-chlorophenyl)-5-chlorobenzimidazole] was tested, and the “15-LO to 5-LO ratio of activities” value ([1]; 15-LO versus 5-LO) was “greater than 10”, the IC50 [1, 7] was 0.65 µM and the IC50 (5-LO enzyme; [8]) was over 10 µM. For the same compound, the IC50 (5-LO enzyme; [9]) was over 10 µM.

Cc1ccc2c(c1)[s+]cc1c3ccccc3[nH]c21 [drawing 19 (R2=H, R3=H, R4=H, R5=CH3, R8=H)] was tested, and the IC50 [1, 3] was 1 to 4 µM.

With c1ccc2c(c1)[nH]c1c3ccccc3[s+]cc21 [drawing 19 (R2=H, R3=H, R4=H, R5=H, R8=H)] the IC50 [1, 3] was 1 to 4 µM.

c1ccc2c(c1)ccc1c3ccccc3[nH]c21 was tested, and the IC50 [1] was 1.5 µM and the IC50 (5-LO enzyme; Table 5, read-out: 5-LO IC50) was over 10 µM.

For CCCCCC#CCC#CCC#CCC#CCCCC(=O)O [CH3 (CH2)3 (CH2 --C≡C--)4 (CH2)3 --COOH], the IC50 ([1]; Table 5, read-out: 15-LO IC50) was 0.75 µM and the IC50 (5-LO enzyme; Table 5, read-out: 5-LO IC50) was over 10 µM.

In the case of COc1ccc2[nH]c3c4ccccc4ncc3c2c1, the IC50 [1, 3] is reported as over 25 µM.

Cc1ccc2[s+]cc3c4ccccc4[nH]c3c2c1 [drawing 19 (R2=H, R3=H, R4=CH3, R5=H, R8=H)] was tested, and the IC50 [1, 3] was 1.9 µM.

Work on O=C(Nc1cccc(Cl)c1)Sc1c[nH]c2ccccc12 yielded an IC50 [1, 4] of 4 µM and an IC50 (5-LO enzyme; [5]) of over 10 µM.

COc1ccc2[nH]c3c(c2c1)CSc1ccccc1-3 was tested, and the IC50 [1, 3] was 0.6 µM and the IC50 (5-LO enzyme; [6]) was over 10 µM.

c1ccc2c(c1)[nH]c1c3cc4c(cc3[s+]cc21)CCCC4 showed an IC50 [1, 3] of 0.5 to 2 µM and an IC50 (5-LO enzyme; [6]) of over 32 µM.

Clc1ccc2[s+]cc3c4ccccc4[nH]c3c2c1 [drawing 19 (R2=H, R3=H, R4=Cl, R5=H, R8=H)] gave an IC50 [1, 3] of 12 µM.

In the case of Clc1ccc2[nH]c(-c3ccccc3)nc2c1, the IC50 [1, 7] is reported as 0.7 µM and the IC50 (5-LO enzyme; [8]) is reported as over 10 µM.

c1ccc2c(c1)SCc1c-2[nH]c2ccccc12 [Compound A, 6,11-dihydro[1]benzothiopyrano[4,3-b]-indole] was tested, and the “cholesterol esters, abdominal region” value ([2]; abdominal (control about 0.6)) was “no detectable cholesterol esters”, the “lesion coverage, abdominal region” value ([2]; abdominal aorta (control 5%)) was “about 1%” and the “unesterified cholesterol, thoracic and abdominal regions” value ([2]; about the same as control) was 0.7-0.8 mg/g tissue wet weight. The “lesion coverage of intima, arch area” value ([2]; aortic arch (control about 15%)) was “no lesion coverage”, the “unesterified cholesterol, arch region” value ([2]; arch (control about 1.4)) was “about 0.8 mg/g” and the “cholesterol esters, arch region” value ([2]; arch (control about 2)) was “no detectable cholesterol esters”. For the same compound, the “cholesterol esters, thoracic region” value ([2]; thoracic (control none)) was “no detectable cholesterol esters”, the “lesions, thoracic region” value ([2]; thoracic aorta) was “No detectable lesions” and the IC50 (5-LO enzyme; [6]) was over 100 µM. For the same compound, the IC50 (5-LO enzyme; [9]) was over 100 µM.

With O=[N+]([O-])c1ccc2[s+]cc3c4ccccc4[nH]c3c2c1 [drawing 19 (R2=H, R3=H, R4=NO2, R5=H, R8=H)] the IC50 [1, 3] was 0.48 µM and the IC50 (5-LO enzyme; [6]) was over 10 µM.

COc1ccc2[nH]c3c(c2c1)COc1ccccc1-3 showed an IC50 [1, 3] of 4 µM and an IC50 (5-LO enzyme; [6]) of over 50 µM.

With c1ccc2c(c1)c[s+]c1c3ccccc3[nH]c21 [drawing 20 (R2=H, R3=H, R4=H, R5=H, R8=H)] the IC50 [1, 3] was 3.8 µM and the IC50 (5-LO enzyme; [6]) was 22 µM.
